Read-outs that look alike come from different tables or passages of the source.

The target of experiment [1] is T1, NAMPT (Homo sapiens, UniProt P43490).
T1 construct: His tag; host or cells: E. coli
The experiment is described as follows: Biochemical inhibition assay: NAMPT enzymatic reaction, NMN quantified by mass spectrometry. The conditions noted are these: read-out: Biochem IC50. The gist of the method: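 Inhibition of E. coli-expressed His-tagged human NAMPT, measured as NMN formation by mass spectrometry after a 30 min room-temperature reaction containing 1 μM NAM, 100 μM PRPP and 2.5 mM ATP.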

The test system of experiment [2] is A2780 cells. The experiment is described as follows: In-vitro cell proliferation assay (SRB), A2780 cells. As to conditions: Homo sapiens, A2780, 72 h, A2780 cells, 72 hours, read-out: A2780 IC50. In kind it is cell-based. The method in brief:
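SRB read-out: 6% TCA fix 1 h at 4° C., stain, Tris solubilize, A570. Media-only background subtracted; % inhibition from two compound concentrations.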

T1 sequence (P43490 whole entry): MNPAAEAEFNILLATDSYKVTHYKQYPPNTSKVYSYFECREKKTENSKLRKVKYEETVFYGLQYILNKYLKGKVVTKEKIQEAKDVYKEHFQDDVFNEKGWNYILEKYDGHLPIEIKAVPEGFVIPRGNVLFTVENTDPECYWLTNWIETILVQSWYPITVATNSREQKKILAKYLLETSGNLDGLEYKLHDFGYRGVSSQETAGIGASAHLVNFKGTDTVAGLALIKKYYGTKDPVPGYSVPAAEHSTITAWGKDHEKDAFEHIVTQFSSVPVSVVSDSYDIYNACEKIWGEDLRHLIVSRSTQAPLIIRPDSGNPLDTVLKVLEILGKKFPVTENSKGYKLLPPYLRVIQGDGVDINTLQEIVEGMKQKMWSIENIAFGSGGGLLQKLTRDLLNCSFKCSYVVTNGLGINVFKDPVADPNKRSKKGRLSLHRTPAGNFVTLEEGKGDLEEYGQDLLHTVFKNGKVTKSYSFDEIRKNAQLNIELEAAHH

As for `N#Cc1ccc(S(=O)(=O)c2ccc(CNC(=O)c3cnc4[nH]ncc4c3)cc2)cc1` [N-({4-[(4-cyanobenzene)sulfonyl]phenyl}methyl)-1H-pyrazolo[3,4-b]pyridine-5-carboxamide], the concentration for half-maximal inhibition (IC50) (in general, the point on the concentration scale where inhibition reaches its midpoint) in experiment [1] (NAMPT enzymatic reaction) worked out at 28.4 nM; in experiment [2] (SRB), 20.8 nM.
On to `CCOc1cccc(S(=O)(=O)c2ccc(CNC(=O)c3cnc4nccn4c3)cc2)c1F`, for which the IC50 in experiment [1] (NAMPT enzymatic reaction) stood at 4 nM; in experiment [2] (SRB) it was 19.7 nM.
As for `COc1cc(S(=O)(=O)c2ccc(CNC(=O)c3cc4ccncc4o3)cc2)ccc1C`, the 50% inhibitory concentration (IC50) was found to be 4.6 nM in experiment [1] (NAMPT enzymatic reaction) and 3.1 nM in experiment [2] (SRB).
In the same order, the values of `Cc1ccc(S(=O)(=O)c2ccc(CNC(=O)c3cnc4nccn4c3)cc2)cc1` are 4.3 nM and 19.4 nM.
`COc1cccc(S(=O)(=O)c2ccc(CNC(=O)c3cc4cnccc4[nH]3)cc2)c1F` [N-({4-[(2-fluoro-3-methoxybenzene)sulfonyl]phenyl}methyl)-1H-pyrrolo[3,2-c]pyridine-2-carboxamide]: the IC50 in experiment [1] (NAMPT enzymatic reaction) is 10 nM; in experiment [2] (SRB assay) it was 7 nM.
Turning to `O=C(NCc1ccc(S(=O)(=O)c2cccc(-c3ccc(F)c(F)c3)n2)cc1)c1cc2cnccc2[nH]1` [N-({4-[6-(3,4-difluorophenyl)pyridine-2-sulfonyl]phenyl}methyl)-1H-pyrrolo[3,2-c]pyridine-2-carboxamide], the IC50 was 16 nM in experiment [1] (NAMPT enzymatic assay) and 12.7 nM in experiment [2] (SRB).
Take `COc1ccc(F)cc1S(=O)(=O)c1ccc(CNC(=O)c2ccc3nccn3c2)cc1` [N-({4-[(5-fluoro-2-methoxybenzene)sulfonyl]phenyl}methyl)imidazo[1,2-a]pyridine-6-carboxamide]: the IC50 in experiment [1] (NAMPT enzymatic reaction) was 22 nM; in experiment [2] (SRB), 6.65 nM.
`Cc1cccc(S(=O)(=O)c2ccc(CNC(=O)c3ccc4nccn4c3)cc2)c1` [N-({4-[(3-methylbenzene)sulfonyl]phenyl}methyl)imidazo[1,2-a]pyridine-6-carboxamide]: the IC50 in experiment [1] (NAMPT enzymatic reaction) was determined as 8.12 nM; in experiment [2] (SRB), 6.39 nM.
As for `CC(C)Oc1cccc(S(=O)(=O)c2ccc(CNC(=O)c3ccc4nccn4c3)cc2)c1F`, the IC50 in experiment [1] (NAMPT enzymatic assay) amounted to 7.8 nM; in experiment [2] (SRB), 4 nM.
Regarding `O=C(NCc1ccc(S(=O)(=O)c2cc(F)ccc2Cl)cc1)c1cc2ccncc2o1`, the IC50 was found to be 16.3 nM in experiment [1] (NAMPT enzymatic reaction) and 24.8 nM in experiment [2] (SRB).
Take `COc1c(C)cc(S(=O)(=O)c2ccc(CNC(=O)c3cnc4nccn4c3)cc2)cc1C`: the IC50 in experiment [1] (NAMPT enzymatic reaction) came to 2.7 nM; in experiment [2] (SRB), 1.3 nM.
Consider `O=C(NCc1ccc(S(=O)(=O)c2ccc(F)cc2Cl)cc1)c1cnc2nccn2c1`, for which the IC50 in experiment [1] (NAMPT enzymatic reaction) is 14.4 nM; in experiment [2] (SRB) it was 100 to 1000 nM.
Regarding `O=C(NCc1ccc(S(=O)(=O)c2cc(C(F)(F)F)ccn2)cc1)c1cc2ccncc2s1` [N-({4-[4-(trifluoromethyl)pyridine-2-sulfonyl]phenyl}methyl)thieno[2,3-c]pyridine-2-carboxamide], the IC50 in experiment [1] (NAMPT enzymatic assay) amounted to 3.6 nM; in experiment [2] (SRB), 3 nM.
Take `O=C(NCc1ccc(S(=O)(=O)c2ccccc2)cc1)c1ccc2nncn2c1` [N-{[4-(benzenesulfonyl)phenyl]methyl}-[1,2,4]triazolo[4,3-a]pyridine-6-carboxamide]: the IC50 in experiment [1] (NAMPT enzymatic reaction) was 301 nM; in experiment [2] (SRB assay), greater than 10000 nM.
As for `CCOc1ccc(S(=O)(=O)c2ccc(CNC(=O)c3ccc4nccn4c3)cc2)c(C)c1`, the IC50 in experiment [1] (NAMPT enzymatic reaction) was determined as 6.6 nM; in experiment [2] (SRB), 11.1 nM.
Turning to `Cc1ccc(S(=O)(=O)c2ccc(CNC(=O)c3ccc4nccn4c3)cc2)cn1` [N-{[4-(6-methylpyridine-3-sulfonyl)phenyl]methyl}imidazo[1,2-a]pyridine-6-carboxamide], the IC50 stood at 21.5 nM in experiment [1] (NAMPT enzymatic assay) and 13.9 nM in experiment [2] (SRB).
For the compound `O=C(NCc1ccc(S(=O)(=O)c2c(F)cccc2Cl)cc1)c1cc2cnccc2[nH]1`, the IC50 in experiment [1] (NAMPT enzymatic reaction) was determined as 114 nM; in experiment [2] (SRB) it was 37.1 nM.
Regarding `O=C(NCc1ccc(S(=O)(=O)c2ccc3c(c2)OCO3)cc1)c1cnc2[nH]ncc2c1` [N-{[4-(2H-1,3-benzodioxole-5-sulfonyl)phenyl]methyl}-1H-pyrazolo[3,4-b]pyridine-5-carboxamide], the IC50 in experiment [1] (NAMPT enzymatic assay) was 48.2 nM; in experiment [2] (SRB) it was 7.4 nM.
Turning to `CCOc1ccccc1S(=O)(=O)c1ccc(CNC(=O)c2cnc3[nH]ncc3c2)cc1`, the IC50 in experiment [1] (NAMPT enzymatic reaction) stood at 49.3 nM; in experiment [2] (SRB) it was 26.9 nM.
`Cc1ccccc1S(=O)(=O)c1ccc(CNC(=O)c2cc3ccncc3s2)cc1` [N-({4-[(2-methylbenzene)sulfonyl]phenyl}methyl)thieno[2,3-c]pyridine-2-carboxamide]: the IC50 is 10 nM in experiment [1] (NAMPT enzymatic reaction) and 22.2 nM in experiment [2] (SRB assay).
For `CC(C)c1cccc(S(=O)(=O)c2ccc(CNC(=O)c3cnc4nccn4c3)cc2)c1`, the IC50 in experiment [1] (NAMPT enzymatic assay) was 2.9 nM; in experiment [2] (SRB) it was 5.3 nM.
Consider `O=C(NCc1ccc(S(=O)(=O)c2ccccc2C(F)(F)F)cc1)c1cnc2nccn2c1`, for which the figures for the IC50 in experiment [1] (NAMPT enzymatic assay) and in experiment [2] (SRB) were 10 nM and 100 to 1000 nM, respectively.
In the same order, the values of `O=C(NCc1ccc(S(=O)(=O)c2csc(-c3cccc(F)c3)n2)cc1)c1ccc2nccn2c1` [N-({4-[2-(3-fluorophenyl)-1,3-thiazole-4-sulfonyl]phenyl}methyl)imidazo[1,2-a]pyridine-6-carboxamide] are 22.9 nM and 12.8 nM.
Consider `COc1cc(C)cc(OC)c1S(=O)(=O)c1ccc(CNC(=O)c2cnc3[nH]ncc3c2)cc1`, for which the IC50 in experiment [1] (NAMPT enzymatic reaction) and in experiment [2] (SRB) was 100 to 1000 nM throughout.
For the compound `O=C(NCc1ccc(S(=O)(=O)c2cccc(F)c2)cc1)c1cc2ccncc2o1` [N-({4-[(3-fluorobenzene)sulfonyl]phenyl}methyl)furo[2,3-c]pyridine-2-carboxamide], the IC50 is 5.8 nM in experiment [1] (NAMPT enzymatic reaction) and 14.5 nM in experiment [2] (SRB).
For the compound `O=C(NCc1ccc(S(=O)(=O)c2cccc(-n3cccn3)c2)cc1)c1ccc2nccn2c1`, the IC50 was 4.8 nM in experiment [1] (NAMPT enzymatic assay) and 6.2 nM in experiment [2] (SRB).
In the same order, the values of `O=C(NCc1ccc(S(=O)(=O)c2cccc3c2Oc2ccccc2S3)cc1)c1cnc2nccn2c1` [N-{[4-(phenoxathiine-4-sulfonyl)phenyl]methyl}imidazo[1,2-a]pyrimidine-6-carboxamide] are 2.1 nM and 4.2 nM.
Regarding `COc1ccc(S(=O)(=O)c2ccc(CNC(=O)c3cc4cnccc4[nH]3)cc2)cc1F` [N-({4-[(3-fluoro-4-methoxybenzene)sulfonyl]phenyl}methyl)-1H-pyrrolo[3,2-c]pyridine-2-carboxamide], the values for the IC50 in experiment [1] (NAMPT enzymatic reaction) and in experiment [2] (SRB assay) were 5 nM and 4 nM, respectively.
With `CC(C)c1cccc(S(=O)(=O)c2ccc(CNC(=O)c3cc4ccncc4o3)cc2)c1`, the IC50 in experiment [1] (NAMPT enzymatic assay) is 4.5 nM; in experiment [2] (SRB), 7 nM.
For the compound `O=C(NCc1ccc(S(=O)(=O)c2cnc(N3CCCC3)s2)cc1)c1cc2cnccc2[nH]1` [N-({4-[2-(pyrrolidin-1-yl)-1,3-thiazole-5-sulfonyl]phenyl}methyl)-1H-pyrrolo[3,2-c]pyridine-2-carboxamide], the IC50 in experiment [1] (NAMPT enzymatic assay) amounted to 6 nM; in experiment [2] (SRB), 0.5 nM.
The corresponding values for `CC(C)Oc1cc(F)ccc1S(=O)(=O)c1ccc(CNC(=O)c2cc3ccncc3o2)cc1` are 15.6 nM and 13.9 nM.
Regarding `O=C(NCc1ccc(S(=O)(=O)Nc2cccc3c2CCCC3)cc1)c1cc2cnccc2[nH]1` [N-({4-[(5,6,7,8-tetrahydronaphthalen-1-yl)sulfamoyl]phenyl}methyl)-1H-pyrrolo[3,2-c]pyridine-2-carboxamide], the IC50 in experiment [1] (NAMPT enzymatic reaction) and in experiment [2] (SRB assay) was greater than 30000 nM throughout.
